According to patent US20250243464A1, “ENHANCED DIFFERENTIATION OF PANCREATIC ISLET CELLS” (Vertex Pharmaceuticals Incorporated, priority 2022, published 2025):

Tests used:
EZH2 = EZH2 (Homo sapiens, UniProt Q15910); details: cited from earlier work
PDX1+/NKX6.1+ cells = assay: Flow cytometry for NKX6.1 and PDX1 at S4C after amino acid supplementation in S1; format: cell-based; details: supplementation in S1 to final 200 μM aspartate, 300 μM glycine, 585 μM serine
Experimental: (§1) To determine whether supplementation of amino acids identified in Example 1 altered cellular differentiation outcomes, the following experiments were conducted. […] A control condition following Protocol 2 only was also performed.
At S4C, samples of the cells that were supplemented with different amino acids during the S1C step were collected and stained with NKX6.1 and PDX1 and analyzed using flow cytometry.

PDX1+/NKX6.1− cells = assay: Flow cytometry for NKX6.1 and PDX1 at S3C after amino acid supplementation in S1; format: cell-based; details: supplementation in S1 to final 200 μM aspartate, 300 μM glycine, 585 μM serine
Experimental: as §1
At S3C, samples of the cells that were supplemented with different amino acids during S1C were collected and stained with NKX6.1 and PDX1 and analyzed using flow cytometry. […] In the control, 89.3% of cells were in PDX1+/NKX6.1-, while in aspartate supplemented samples 90% of cells were PDX1+/NKX6.1-(FIG. 6B).

[1] = test system: ISL1+/NKX6.1+ (β-like) cells and ISL1+/NKX6.1− (α-like) cells; assay: Flow cytometry for NKX6.1 and ISL1 at S5C after amino acid supplementation in S1; format: cell-based; details: supplementation in Stage 1; for amount of SC-β-cells / SC-β-cell composition versus control: Stage 5 (S5C)
Experimental: as §1
(§2) At S5C, samples of the cells that were supplemented with different amino acids during S1C were collected and stained with NKX6.1 and ISL1 and analyzed using flow cytometry. […] To determine how amino acid supplementation affected yield, cell viability assays were performed.
(§3) In the next set of experiments, different combinations of amino acids were tested for their effects on yield and β-cell composition. […] The control group only received treatment with Protocol 2. […] The amino acid supplemented S1 base media were utilized for each S1 feed in a Protocol 2 differentiation at 0.3 L scale, alongside a control. At S5C, samples of cells were collected, stained with NKX6.1 and ISL1 and analyzed by flow cytometry. […] To determine how amino acid supplementation affected yield, cell viability assays were performed.

Sox17+/Oct4− cells = assay: Flow cytometry for Sox17 and Oct4 at S1C after amino acid supplementation in S1 of Protocol 2; format: cell-based; details: supplementation in S1 to final 200 μM aspartate, 300 μM glycine, 585 μM serine, Protocol 2, 0.3 L scale
Experimental: as §1
The amino acid supplemented S1 base media were utilized for each S1 feed in a Protocol 2 differentiation at 0.3 L scale, alongside a control. At S1C, samples of cells were collected, stained with Sox17 and Oct4 and analyzed by flow cytometry.

viable cell density = assay: Cell viability assays / yield of Protocol 2 differentiation with amino acid supplementation in S1; format: cell-based
Experimental: as §2, §3

EZH2, sequence (Q15910 whole entry, species assumed): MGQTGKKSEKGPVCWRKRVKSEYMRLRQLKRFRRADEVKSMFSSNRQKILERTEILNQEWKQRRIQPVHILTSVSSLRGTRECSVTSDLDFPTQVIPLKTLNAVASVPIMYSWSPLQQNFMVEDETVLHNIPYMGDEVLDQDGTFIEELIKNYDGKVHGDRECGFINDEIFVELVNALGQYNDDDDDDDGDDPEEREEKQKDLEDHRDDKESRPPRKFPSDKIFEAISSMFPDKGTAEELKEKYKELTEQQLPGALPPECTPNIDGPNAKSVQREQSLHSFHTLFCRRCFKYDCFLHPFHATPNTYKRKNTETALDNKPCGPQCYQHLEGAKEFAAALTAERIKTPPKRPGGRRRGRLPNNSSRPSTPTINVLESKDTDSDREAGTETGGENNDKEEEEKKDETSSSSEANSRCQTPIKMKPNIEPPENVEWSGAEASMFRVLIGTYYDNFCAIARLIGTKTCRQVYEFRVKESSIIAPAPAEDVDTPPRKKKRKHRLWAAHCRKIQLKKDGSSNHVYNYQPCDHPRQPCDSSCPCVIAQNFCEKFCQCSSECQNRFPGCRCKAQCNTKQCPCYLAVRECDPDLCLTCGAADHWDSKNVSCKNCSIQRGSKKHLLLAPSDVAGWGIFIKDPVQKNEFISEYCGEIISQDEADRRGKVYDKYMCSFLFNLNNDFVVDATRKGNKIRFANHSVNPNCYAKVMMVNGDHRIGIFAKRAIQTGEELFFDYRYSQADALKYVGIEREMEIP
EZH2, sequence (O75530 whole entry partner, species assumed): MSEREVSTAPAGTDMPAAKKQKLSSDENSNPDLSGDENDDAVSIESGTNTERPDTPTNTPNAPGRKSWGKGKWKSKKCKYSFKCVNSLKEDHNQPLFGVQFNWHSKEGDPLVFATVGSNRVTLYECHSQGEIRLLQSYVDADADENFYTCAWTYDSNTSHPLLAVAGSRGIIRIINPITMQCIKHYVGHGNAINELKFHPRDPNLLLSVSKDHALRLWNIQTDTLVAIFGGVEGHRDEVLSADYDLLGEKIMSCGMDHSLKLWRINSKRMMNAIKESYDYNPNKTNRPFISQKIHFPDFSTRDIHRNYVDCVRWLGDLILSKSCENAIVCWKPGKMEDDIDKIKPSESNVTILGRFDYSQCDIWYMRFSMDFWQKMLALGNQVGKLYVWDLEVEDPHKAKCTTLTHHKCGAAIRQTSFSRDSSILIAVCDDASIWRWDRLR
EZH2, sequence (Q15022 whole entry partner, species assumed): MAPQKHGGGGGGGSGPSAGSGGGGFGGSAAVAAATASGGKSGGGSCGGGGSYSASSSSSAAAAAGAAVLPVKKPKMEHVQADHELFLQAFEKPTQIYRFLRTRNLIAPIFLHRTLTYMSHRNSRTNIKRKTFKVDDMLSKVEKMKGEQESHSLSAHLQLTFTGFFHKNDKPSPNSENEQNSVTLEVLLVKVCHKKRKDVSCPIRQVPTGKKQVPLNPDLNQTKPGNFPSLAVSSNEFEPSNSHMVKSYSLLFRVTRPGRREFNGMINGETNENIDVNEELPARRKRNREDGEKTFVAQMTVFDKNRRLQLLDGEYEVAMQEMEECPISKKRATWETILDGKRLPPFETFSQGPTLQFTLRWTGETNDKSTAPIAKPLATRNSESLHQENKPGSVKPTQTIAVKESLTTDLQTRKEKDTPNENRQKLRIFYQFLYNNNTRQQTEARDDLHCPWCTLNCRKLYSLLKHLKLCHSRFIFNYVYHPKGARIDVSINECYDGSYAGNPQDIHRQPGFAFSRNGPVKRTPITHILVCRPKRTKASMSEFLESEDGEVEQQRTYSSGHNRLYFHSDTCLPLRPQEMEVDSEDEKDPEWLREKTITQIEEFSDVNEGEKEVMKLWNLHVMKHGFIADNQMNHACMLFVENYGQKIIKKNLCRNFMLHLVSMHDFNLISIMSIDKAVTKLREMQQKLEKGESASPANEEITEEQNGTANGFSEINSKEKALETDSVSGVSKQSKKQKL

Compound	selectivity over EZH1 (EZH2; EZH2 versus EZH1) [fold]	% of PDX1+/NKX6.1+ cells (PDX1+/NKX6.1+ cells) [%]	% of PDX1+/NKX6.1− cells (PDX1+/NKX6.1− cells) [%]	amount of SC-β-cells / SC-β-cell composition versus control [1]	% of Sox17+/Oct3/4− cells (Sox17+/Oct4− cells) [%]	selectivity compared with GSK126 (EZH2)	yield (viable cells at harvest) relative to the control (viable cell density)	α-like cell development ([1]; S5C)
CC[C@H](C)n1cc(C)c2c(C(=O)NCc3c(C)cc(C)[nH]c3=O)cc(-c3ccc(N4CCNCC4)nc3)cc21 [GSK126]	150	–	–	–	–	–	–	–
aspartate [Protocol 2 + Aspartate]	–	77.8	90	increased	75.6	–	–	–
CCCc1cc(C)[nH]c(=O)c1CNC(=O)c1cc(-c2ccc(N3CCN(C(C)C)CC3)nc2)cc2c1cnn2C(C)C [UNC1999]	–	–	–	–	–	less selective	–	–
N[C@@H](CO)C(=O)O [Protocol 2 + Serine, serine]	–	72.1	89.1	–	72.9	–	decreased yield	promoted α-like cell development
glycine [Protocol 2 + Glycine]	–	77.2	89.1	increased	81.1	–	decreased yield	–
